Laboratory results: patent publication US6852673B2, “Herbicidal pyridine compounds” (BASF Aktiengesellschaft, priority 1998, dated 2005)

Tests used:
Type in all cases: in vivo
[1] = test system: Triticum aestivum (TRZAW); experiment: Pre-emergence herbicidal evaluation, winter wheat
Source text: (§1) The pre-emergence herbicidal activity of the compounds of the present invention is exemplified by the following test in which the seeds of a variety of monocotyledonous and dicotyledonous plants are seperately mixed with potting soil and planted on top of approximately one inch of soil in separate pots. After planting, the pots are sprayed with the selected aqueous acetone solution containing test compound in sufficient quantity to provide the equivalent of about 0.0125 to 0.4 kg per hectare of test compound per pot. The treated pots are then placed on greenhouse benches, watered and cared for in accordance with conventional greenhouse procedures. From 2 to 4 weeks after treatment, the tests are terminated and each pot is examined and rated according to the rating system set forth below.

[2] = test system: Alopecurus myosuroides (ALOMY); experiment: Post-emergence herbicidal evaluation, black grass; conditions: rated 2 to 4 weeks after treatment
Description: (§2) [table] [table] […] These acetone solutions are diluted with water and the resulting formulations applied at dosage levels equivalent of about 0.03 to 0.4 kg per hectare of test compound per pot. After spraying the plants are placed on greenhouse benches and are cared for in the usual manner, commensurate with conventional greenhouse practices. From 2 to 4 weeks after treatment, the seedling plants are examined and rated according to the rating system provided above. A rating 0 indicates growth as untreated control, a rating 9 indicates death.

[3] = test system: Stellaria media (STEME); experiment: Pre-emergence herbicidal evaluation, chickweed
Source text: as §1

[4] = test system: Oryza sativum (ORYSA); experiment: Post-emergence herbicidal evaluation, rice; conditions: rated 2 to 4 weeks after treatment
Description: as §2

[5] = test system: weeds; experiment: Post-emergence herbicidal evaluation, overall weed control; conditions: in barley at crop selective doses
Description: as §2

[6] = test system: Triticum aestivum (TRZAW); experiment: Post-emergence herbicidal evaluation, winter wheat; conditions: rated 2 to 4 weeks after treatment
Description: as §2

[7] = test system: Matricaria inodora (MATIN); experiment: Pre-emergence herbicidal evaluation, mayweed
Source text: as §1

[8] = test system: Echinochloa grus galli (ECHCG); experiment: Pre-emergence herbicidal evaluation, barnyard grass
Source text: as §1

[9] = test system: Echinochloa grus galli (ECHCG); experiment: Post-emergence herbicidal evaluation, barnyard grass; conditions: rated 2 to 4 weeks after treatment
Description: as §2

[10] = test system: Solanum nigrum (SOLNI); experiment: Pre-emergence herbicidal evaluation, black nightshade
Source text: as §1

[11] = test system: Hordeum vulgare (HORVW); experiment: Pre-emergence herbicidal evaluation, winter barley
Source text: as §1

[12] = test system: Lamium purpureum (LAMPU); experiment: Pre-emergence herbicidal evaluation, purple deadnettle
Source text: as §1

[13] = test system: Zea mays (ZEAMX); experiment: Post-emergence herbicidal evaluation, maize; conditions: rated 2 to 4 weeks after treatment
Description: as §2

[14] = test system: Hordeum vulgare (HORVW); experiment: Post-emergence herbicidal evaluation, winter barley; conditions: rated 2 to 4 weeks after treatment
Description: as §2

[15] = test system: Oryza sativum (ORYSA); experiment: Pre-emergence herbicidal evaluation, rice
Source text: as §1

[16] = test system: Matricaria inodora (MATIN); experiment: Post-emergence herbicidal evaluation, mayweed; conditions: rated 2 to 4 weeks after treatment
Description: as §2

[17] = test system: Setaria viridis (SETVI); experiment: Post-emergence herbicidal evaluation, green foxtail; conditions: for SETVI rating: rated 2 to 4 weeks after treatment
Description: as §2

[18] = test system: Galium aparine (GALAP); experiment: Pre-emergence herbicidal evaluation, cleaver; conditions: dose 0.013 kg/ha
Source text: as §1

Q: Which TRZAW rating ([1]; dose 0.013 kg/ha) does the source give for Cc1cc(OCC(F)(F)C(F)(F)F)nc(Oc2cc(C(F)(F)F)nn2C)c1 [Example 7] here?
A: 0 (0 - No effect)

Q: What about the TRZAW rating ([1]; dose 0.025 kg/ha) of the same compound?
A: 0 (0 - No effect)

Q: What about the TRZAW rating ([1]; dose 0.1 kg/ha) of the same compound?
A: 1 (1 - Trace effect)

Q: And the TRZAW rating ([1]; dose 0.4 kg/ha)?
A: 2 (2 - Slight effect)

Q: What about the ALOMY rating ([2]; dose 0.03 kg/ha) of the same compound?
A: 2 (2 - Slight effect)

Q: And the ALOMY rating ([2]; dose 0.1 kg/ha)?
A: 4 (4 - Injury)

Q: What about the ALOMY rating ([2]; dose 0.4 kg/ha) of the same compound?
A: 5 (5 - Definite injury)

Q: And the STEME rating ([3]; dose 0.025 kg/ha)?
A: 5 (5 - Definite injury)

Q: What about the STEME rating ([3]; dose 0.1 kg/ha) of the same compound?
A: 7 (7 - Good herbicidal effect)

Q: And the STEME rating ([3]; dose 0.4 kg/ha)?
A: 8 (8 - Approaching complete kill)

Q: And the ORYSA rating ([4]; dose 0.03 kg/ha)?
A: 3 (3 - Moderate effect)

Q: And the ORYSA rating ([4]; dose 0.1 kg/ha)?
A: 3 (3 - Moderate effect)

Q: What about the ORYSA rating ([4]; dose 0.4 kg/ha) of the same compound?
A: 3 (3 - Moderate effect)

Q: And the broad-leaved weed control [5]?
A: effective

Q: What about the TRZAW rating ([6]; dose 0.03 kg/ha) of the same compound?
A: 2 (2 - Slight effect)

Q: And the TRZAW rating ([6]; dose 0.1 kg/ha)?
A: 2 (2 - Slight effect)

Q: What about the TRZAW rating ([6]; dose 0.4 kg/ha) of the same compound?
A: 3 (3 - Moderate effect)

Q: What about the MATIN rating ([7]; dose 0.013 kg/ha) of the same compound?
A: 0 (0 - No effect)

Q: What about the MATIN rating ([7]; dose 0.025 kg/ha) of the same compound?
A: 3 (3 - Moderate effect)

Q: What about the MATIN rating ([7]; dose 0.1 kg/ha) of the same compound?
A: 8 (8 - Approaching complete kill)

Q: And the MATIN rating ([7]; dose 0.4 kg/ha)?
A: 9 (9 - Complete kill)

Q: And the ECHCG rating ([8]; dose 0.013 kg/ha)?
A: 0 (0 - No effect)

Q: And the ECHCG rating ([8]; dose 0.025 kg/ha)?
A: 1 (1 - Trace effect)

Q: What about the ECHCG rating ([8]; dose 0.1 kg/ha) of the same compound?
A: 4 (4 - Injury)

Q: What about the ECHCG rating ([8]; dose 0.4 kg/ha) of the same compound?
A: 7 (7 - Good herbicidal effect)

Q: And the ECHCG rating ([9]; dose 0.03 kg/ha)?
A: 4 (4 - Injury)

Q: What about the ECHCG rating ([9]; dose 0.1 kg/ha) of the same compound?
A: 7 (7 - Good herbicidal effect)

Q: What about the ECHCG rating ([9]; dose 0.4 kg/ha) of the same compound?
A: 7 (7 - Good herbicidal effect)

Q: What about the SOLNI rating ([10]; dose 0.013 kg/ha) of the same compound?
A: 0 (0 - No effect)

Q: What about the SOLNI rating ([10]; dose 0.025 kg/ha) of the same compound?
A: 1 (1 - Trace effect)

Q: What about the SOLNI rating ([10]; dose 0.1 kg/ha) of the same compound?
A: 4 (4 - Injury)

Q: What about the SOLNI rating ([10]; dose 0.4 kg/ha) of the same compound?
A: 9 (9 - Complete kill)

Q: And the HORVW rating ([11]; dose 0.013 kg/ha)?
A: 0 (0 - No effect)

Q: What about the HORVW rating ([11]; dose 0.025 kg/ha) of the same compound?
A: 0 (0 - No effect)

Q: And the HORVW rating ([11]; dose 0.1 kg/ha)?
A: 2 (2 - Slight effect)

Q: What about the HORVW rating ([11]; dose 0.4 kg/ha) of the same compound?
A: 3 (3 - Moderate effect)

Q: And the LAMPU rating ([12]; dose 0.025 kg/ha)?
A: 6 (6 - Herbicidal effect)

Q: And the LAMPU rating ([12]; dose 0.1 kg/ha)?
A: 8 (8 - Approaching complete kill)

Q: And the LAMPU rating ([12]; dose 0.4 kg/ha)?
A: 9 (9 - Complete kill)

Q: And the ZEAMX rating ([13]; dose 0.03 kg/ha)?
A: 2 (2 - Slight effect)

Q: What about the ZEAMX rating ([13]; dose 0.1 kg/ha) of the same compound?
A: 2 (2 - Slight effect)

Q: And the ZEAMX rating ([13]; dose 0.4 kg/ha)?
A: 3 (3 - Moderate effect)

Q: What about the HORVW rating ([14]; dose 0.03 kg/ha) of the same compound?
A: 2 (2 - Slight effect)

Q: And the HORVW rating ([14]; dose 0.1 kg/ha)?
A: 3 (3 - Moderate effect)

Q: And the HORVW rating ([14]; dose 0.4 kg/ha)?
A: 3 (3 - Moderate effect)

Q: What about the ORYSA rating ([15]; dose 0.013 kg/ha) of the same compound?
A: 0 (0 - No effect)

Q: And the ORYSA rating ([15]; dose 0.025 kg/ha)?
A: 1 (1 - Trace effect)

Q: What about the ORYSA rating ([15]; dose 0.1 kg/ha) of the same compound?
A: 1 (1 - Trace effect)

Q: And the ORYSA rating ([15]; dose 0.4 kg/ha)?
A: 2 (2 - Slight effect)

Q: And the MATIN rating ([16]; dose 0.03 kg/ha)?
A: 2 (2 - Slight effect)

Q: And the MATIN rating ([16]; dose 0.1 kg/ha)?
A: 7 (7 - Good herbicidal effect)

Q: What about the MATIN rating ([16]; dose 0.4 kg/ha) of the same compound?
A: 8 (8 - Approaching complete kill)

Q: And the SETVI rating ([17]; dose 0.03 kg/ha)?
A: 2 (2 - Slight effect)

Q: And the SETVI rating ([17]; dose 0.1 kg/ha)?
A: 4 (4 - Injury)

Q: And the SETVI rating ([17]; dose 0.4 kg/ha)?
A: 8 (8 - Approaching complete kill)

Q: What about the “grass control such as Setaria virides” value ([17]; in barley at crop selective doses) of the same compound?
A: effective

Q: What about the GALAP rating [18] of the same compound?
A: 0 (0 - No effect)
